Experimental data: the CheMixHub viscosity set
Values joined by “and” are separate entries in the source; they are usually repeats but may differ in a detail not shown here. Equal values may be shown once.

Test: xn = mol fraction of the nth substance listed

CC(C)=O + CCCCCC
298.15 K, 101 kPa
Conditions	viscosity [mPa·s]
x1 = 0.1416	0.303
x1 = 0.2707	0.3137
x1 = 0.3888	0.3047
x1 = 0.4974	0.2983
x1 = 0.5975	0.3043
x1 = 0.6901	0.3039
x1 = 0.776	0.2984
x1 = 0.8559	0.3113
x1 = 0.9304	0.3144

CC[C@H](C)[C@H](N)C(=O)O + O
viscosity, 101 kPa
Conditions	293.15 K	298.15 K	303.15 K	308.15 K	313.15 K	318.15 K
x1 = 0.00045	1.008 mPa·s	0.896 mPa·s and 0.896 mPa·s	0.8028 mPa·s and 0.8027 mPa·s	0.7244 mPa·s and 0.7243 mPa·s	0.6578 mPa·s and 0.6577 mPa·s	0.6022 mPa·s and 0.602 mPa·s
x1 = 0.0009	1.019 mPa·s	0.9057 mPa·s and 0.9059 mPa·s	0.8118 mPa·s and 0.8118 mPa·s	0.733 mPa·s and 0.7328 mPa·s	0.6658 mPa·s and 0.6657 mPa·s	0.6098 mPa·s and 0.6096 mPa·s
x1 = 0.00135	1.03 mPa·s	0.9164 mPa·s and 0.9165 mPa·s	0.8217 mPa·s and 0.8217 mPa·s	0.7422 mPa·s and 0.742 mPa·s	0.6745 mPa·s and 0.6744 mPa·s	0.6181 mPa·s and 0.6178 mPa·s
x1 = 0.0018	1.042 mPa·s	0.9273 mPa·s and 0.9275 mPa·s	0.8319 mPa·s and 0.8318 mPa·s	0.7516 mPa·s and 0.7515 mPa·s	0.6834 mPa·s and 0.6832 mPa·s	0.6265 mPa·s and 0.6261 mPa·s
x1 = 0.002245	1.054 mPa·s	0.9386 mPa·s and 0.9387 mPa·s	0.8423 mPa·s and 0.8422 mPa·s	0.7613 mPa·s and 0.7612 mPa·s	0.6925 mPa·s and 0.6923 mPa·s	0.6351 mPa·s and 0.6347 mPa·s
x1 = 0.002695	1.067 mPa·s	0.9502 mPa·s and 0.9502 mPa·s	0.8531 mPa·s and 0.853 mPa·s	0.7714 mPa·s and 0.7713 mPa·s	0.702 mPa·s and 0.7018 mPa·s	0.6438 mPa·s and 0.6434 mPa·s

CC(C)=O + CC(C)CC(C)(C)C
298.15 K, 101 kPa
Conditions	viscosity [mPa·s]
x1 = 0.0643	0.456
x1 = 0.1001	0.448
x1 = 0.2004	0.428
x1 = 0.2297	0.422
x1 = 0.2934	0.417
x1 = 0.3408	0.404
x1 = 0.3994	0.395
x1 = 0.5006	0.378
x1 = 0.5566	0.367
x1 = 0.5927	0.36
x1 = 0.7032	0.341
x1 = 0.7941	0.327
x1 = 0.8898	0.314

CCCCCCCCC(=O)O + CCCCCCCCCCCC(=O)[O-].[Na+]
100 kPa, x2 = 0.2
Conditions	viscosity [mPa·s]
293.15 K	68.61
298.15 K	54.38
303.15 K	43.69
308.15 K	35.55
313.15 K	29.28
318.15 K	24.38
323.15 K	20.51

CCOCCn1cc[n+](CCC#N)c1.O=S(=O)([N-]S(=O)(=O)C(F)(F)F)C(F)(F)F + CS(C)=O
Conditions	viscosity [mPa·s]
303.15 K, 101.33 kPa, x1 = 0.7207	40.65

CC1COC(=O)O1 (stereo unspecified) + CCCCCCCO
298.15 K, 101 kPa
Conditions	viscosity [mPa·s]
x1 = 0.0321	4.755
x1 = 0.1202	4.481
x1 = 0.1934	4.281
x1 = 0.2735	4.035
x1 = 0.3226	3.909
x1 = 0.4002	3.709
x1 = 0.4717	3.534
x1 = 0.5334	3.39
x1 = 0.6111	3.217
x1 = 0.699	3.031
x1 = 0.7602	2.909
x1 = 0.8226	2.789
x1 = 0.8925	2.662
x1 = 0.9674	2.529

C1CCOC1 + C1CCCCC1
Conditions	viscosity [mPa·s]
298.15 K, 101.3 kPa, x2 = 0.1002	0.4906
298.15 K, 101.3 kPa, x2 = 0.1973	0.5151
298.15 K, 101.3 kPa, x2 = 0.2946	0.5406
298.15 K, 101.3 kPa, x2 = 0.3963	0.5689
298.15 K, 101.3 kPa, x2 = 0.5012	0.6048
298.15 K, 101.3 kPa, x2 = 0.5961	0.6424
298.15 K, 101.3 kPa, x2 = 0.7009	0.6906
298.15 K, 101.3 kPa, x2 = 0.906	0.8152
303.15 K, 101.33 kPa, x1 = 0.0954	0.751
303.15 K, 101.33 kPa, x1 = 0.1961	0.691
303.15 K, 101.33 kPa, x1 = 0.3067	0.639
303.15 K, 101.33 kPa, x1 = 0.4023	0.6
303.15 K, 101.33 kPa, x1 = 0.5059	0.562
303.15 K, 101.33 kPa, x1 = 0.6054	0.533
303.15 K, 101.33 kPa, x1 = 0.704	0.505
303.15 K, 101.33 kPa, x1 = 0.8065	0.478
303.15 K, 101.33 kPa, x1 = 0.8987	0.457
313.15 K, 101.3 kPa, x2 = 0.1002	0.4186
313.15 K, 101.3 kPa, x2 = 0.1973	0.4356
313.15 K, 101.3 kPa, x2 = 0.2946	0.4542
313.15 K, 101.3 kPa, x2 = 0.3963	0.4773
313.15 K, 101.3 kPa, x2 = 0.5012	0.5037
313.15 K, 101.3 kPa, x2 = 0.5961	0.5305
313.15 K, 101.3 kPa, x2 = 0.7009	0.5648
313.15 K, 101.3 kPa, x2 = 0.906	0.6505

CC1COC(=O)O1 (stereo unspecified) + COC(=O)OC
298.15 K, 101.3 kPa
Conditions	viscosity [mPa·s]
x2 = 0.0944	2.217
x2 = 0.1815	1.965
x2 = 0.3215	1.618
x2 = 0.4861	1.287
x2 = 0.5752	1.138
x2 = 0.6827	0.98
x2 = 0.7254	0.924
x2 = 0.7801	0.856
x2 = 0.9012	0.724

O=C([O-])[O-].[K+].[K+] + O
viscosity [mPa·s], 101 kPa
Conditions	303.15 K	308.15 K	313.15 K
x1 = 0.002	0.839	0.769	0.703
x1 = 0.005	0.889	0.814	0.745
x1 = 0.009	0.944	0.864	0.793

CC[N+](CC)(CC)CC.Cc1ccc(S(=O)(=O)[O-])cc1 + OCCOCCOCCOCCO
101 kPa, x1 = 0.2
Conditions	viscosity [mPa·s]
298.15 K	74.7
303.15 K	57.8
308.15 K	45.9
313.15 K	36.9
318.15 K	30.2
323.15 K	25

CCCCn1cc[n+](C)c1.O=S(=O)([O-])C(F)(F)F + O
101 kPa
Conditions	viscosity [mPa·s]
308.15 K, x2 = 0.3999	19.95
323.15 K, x2 = 0.901	3.005
